Assay results as given in a melting point compilation (Tetko et al.).

| melting point [°C] | SMILES |
| --- | --- |
| 128 to 130 | O=[N+]([O-])c1ccc(-c2nnc(CCl)o2)cc1 |
| 109 to 111 | O=S(=O)(c1ccccc1)n1c(I)cc2cccnc21 |
| 123 to 125 | NC(=O)c1cc(=NCC2CCCO2)cc[nH]1 (stereo not drawn) |
| 116 to 118 | CS(=O)(=O)c1ccc(N)cc1F |
| 64 to 66 | Cc1cc(C#N)ccc1S(=O)(=O)Cl |
| 123 to 125 | O=C(O)Cc1cccc(OCc2ccccn2)c1 |
| 140 to 142 | NNc1ccc(S(=O)(=O)NC2CCCCCCC2)cn1 |
| 179 to 181 | O=C(O)c1cn(Cc2ccccn2)nn1 |
| 169 to 171 | Fc1ccccc1CNc1ccc(Cl)nn1 |
| 251 to 253 | O=C(O)c1cnc2ccccn2c1=O |
| 369 to 371 | N#Cc1cnn2c(O)cc(CCl)nc12 |
| 66 to 68 | Nc1cccc(-c2nnco2)c1 |
| 106 to 108 | CCOC(=O)N1CCc2nnc(Cl)cc2C1 |
| 166 to 168 | CNc1cc(C#N)c2ccccc2n1 |
| 143 to 145 | Cc1ccc(-c2noc(CCC(=O)O)n2)cc1 |
| 66 to 68 | CCOC(=O)C=Cc1ccc2c(c1)OCO2 |
| 158 to 160 | OCc1ccc2cn[nH]c2c1 |
| 141 to 143 | Cc1n[nH]c(-c2ccccc2C)n1 |
| 250 to 252 | O=C(O)c1cnc2c(c1)c(C1CC1)nn2-c1ccccc1 |
| 175 to 177 | CC1(c2ccc(F)c(F)c2)NC(=O)NC1=O (stereo not drawn) |
| 179 to 181 | O/N=C/c1c(Cl)ncn1-c1ccccc1 |
| 104 to 106 | CNS(=O)(=O)c1ccc(C(C)N)cc1 (stereo not drawn) |
| 229 to 231 | CC(=O)Nc1cncc(C(=O)NN)c1 |
| 168 to 170 | CC(C)c1ccc(-c2ncc(CSc3nnc(N)[nH]3)s2)cc1 |
| 104 to 106 | Cn1ccc(N2CCCC(Br)C2=O)n1 (stereo not drawn) |
| 79 to 81 | CCC(=CC(=O)O)c1cccc(Cl)c1 |
| 125 to 127 | CS(=O)(=O)c1ccc(N)c(N)c1 |

| melting point [°C] | SMILES |
| --- | --- |
| 131 to 133 | CC(O)c1ccc(O)cc1 (stereo not drawn) |
| 231 to 233 | Oc1ccc(Sc2ccnc3cc(Cl)ccc23)cc1 |
| 279 to 281 | N#CCc1nc2ccc(Br)cc2c(=O)[nH]1 |
| 286 to 288 | Cc1cc(C)c2c(Cl)c(C(=O)O)sc2c1 |
| 123 to 125 | Cc1ccccc1-c1csc(=O)[nH]1 |
| 190 to 192 | Nc1ccc2c(c1)CC(=O)N2 |
| 83 to 85 | COC(=O)c1ccc2ccccc2n1 |
| 197 to 199 | Cc1ccc2cc(C(=O)O)c(C)nc2c1 |
| 158 to 160 | Cc1cccc(C(=O)Nc2ccc(O)cc2)c1 |
| 219 to 221 | Nc1nncc(-c2cccc(Cl)c2)n1 |
| 99 to 101 | Cc1cc(NN)ncn1 |
| 124 to 126 | O=c1c2ccccc2ncn1CCCl |
| 154 to 156 | Cc1cc(N)ccc1C(=O)O |
| 195 to 197 | CC(=O)c1c(C)[nH]c2ccccc12 |
| 221 to 223 | COc1ccc([N+](=O)[O-])cc1NS(=O)(=O)c1ccc(Cl)c(C(=O)O)c1 |
| 140 to 142 | Cn1cc(C(=O)O)c(C(C)(C)C)n1 |
| 153 to 155 | Cc1ccc(CNC(=O)c2nnc(CCl)s2)cc1 |
| 101 to 103 | Nc1ccc(N2CCSCC2)c(Cl)c1 |
| 120 to 122 | Cn1nc(Br)c2c(NCCN)ncnc21 |
| 63 to 65 | CC(C)CC(N)C(O)c1cccs1 (stereo not drawn) |
| 133 to 135 | CCOC(=O)c1sc2cccc(F)c2c1CBr |
| 134 to 136 | COC(=O)c1cc2nc(Cl)ccc2n1C |
| 149 to 151 | Cc1cc(NC(=O)C(C)Cl)ccc1Br (stereo not drawn) |
| 272 to 274 | CC(C)CC(N)c1nnn[nH]1 (stereo not drawn) |
| 251 to 253 | CS(=O)(=O)Nc1nnc(N)s1 |
| 159 to 161 | CC(C)c1nc(C(=O)O)nn1-c1ccccc1F |
| 108 to 110 | O=C(CCl)NC(c1ccccc1)c1nccs1 (stereo not drawn) |

| melting point [°C] | SMILES |
| --- | --- |
| 98 to 100 | Cc1nc2ccccn2c1P(c1ccccc1)c1ccccc1 |
| 65 to 67 | CC1CSc2ccc(Br)cc2C1=O (stereo not drawn) |
| 64 to 66 | CC(O)Cc1ccc2ccccc2n1 (stereo not drawn) |
| 160 to 162 | Cc1ccccc1-c1nnc(N)o1 |
| 144 to 146 | COCCNc1ccc(S(C)(=O)=O)cc1N |
| 113 to 115 | CC1(C(=O)O)CCCc2ccccc21 (stereo not drawn) |
| 83 to 85 | Nc1ccccc1-c1ccncc1 |
| 209 to 211 | CCS(=O)(=O)c1ccc2oc(N)nc2c1 |
| 72 to 74 | COC(=O)Nc1ccc(N)cc1F |
| 72 to 74 | OCc1cnc(-c2ccccc2)s1 |
| 110 to 112 | CS(=O)(=O)NCCc1ccc(C(=O)CCl)s1 |
| 239 to 241 | CC(=O)c1cc(C(=O)O)ccc1O |
| 221 to 223 | Cc1c(C(=O)O)cccc1N1CCNC1=O |
| 176 to 178 | O=C1CCc2ccc(Br)cc2N1 |
| 34 to 36 | O=S(=O)(Cl)c1cc(Br)c(F)cc1F |
| 172 to 174 | Oc1cccc(-n2ccnc2)c1 |
| 234 to 236 | CCC(=O)Nc1cc2ccccc2cc1C(=O)O |
| 65 to 67 | COc1ccccc1CNCCO |
| 199 to 201 | CCNS(=O)(=O)c1cccc(C(=O)O)c1 |
| 104 to 115 | COc1cccc(-n2nc(C)c(CCC(=O)O)c2C)c1 |
| 185 to 187 | Nc1cccc(NC(=O)c2ccncc2)c1 |
| 183 to 185 | ON=Cc1cnc2ccccn12 |
| 85 to 87 | CS(=O)(=O)c1cccc(C(=O)Cl)c1 |
| 77 to 79 | Nc1ccc(Sc2cccs2)cn1 |
| 326 to 330 | O=C(O)c1cccc2[nH]cnc12 |

More lines, now with the values behind:

| SMILES | melting point [°C] |
| --- | --- |
| Nc1ccnn1C1CCS(=O)(=O)C1 (stereo not drawn) | 169 to 171 |
| CS(=O)(=O)N1CCCC(C(=O)O)C1 (stereo not drawn) | 107 to 109 |
| CCc1c(C)[nH]c2ccc(Oc3ccccc3)cc2c1=O | 266 to 268 |
| O=C1COc2ccccc2C(=O)N1 | 149 to 151 |
| O=Cc1cc([N+](=O)[O-])ccc1OC(F)F | 46 to 48 |
| CC(=O)NC1CCN(C(C)C)CC1 | 84 to 86 |
| CC(C)(C)OC(=O)N1CCC(C(=O)O)(n2cccn2)CC1 | 159 to 161 |
| CC(=O)Nc1ccc(S(=O)(=O)NC(C)C(=O)O)cc1 (stereo not drawn) | 178 to 180 |
| CC(N)=C(C#N)C(=O)O | 319 to 321 |
| O=C(O)CCCSc1nc2ccccc2s1 | 103 to 105 |
| O=C(O)Cc1csc(-c2ccc(O)cc2)n1 | 97 to 99 |
| O=C(O)c1cc(S(=O)(=O)Nc2ccc(F)cc2)ccc1Cl | 205 to 207 |
| Nc1ccc(S(=O)(=O)CC2CCCO2)cc1 (stereo not drawn) | 100 to 102 |
| N#CCc1c(C#N)c(N)nc(N2CCCCC2)c1C#N | 142 to 144 |
| CC(C)(C)OC(=O)N1CCCC(C)(C(=O)O)C1 (stereo not drawn) | 117 to 119 |
| O=C1CCCN1c1cccc(Br)c1 | 69 to 71 |
| CC1(c2c(F)cccc2F)CC1C(=O)O (stereo not drawn) | 113 to 115 |
| O=C(O)C(OC1CCOCC1)c1ccccc1 (stereo not drawn) | 87 to 89 |
| O=C(O)CCNC(=O)c1ccccc1Cl | 82 to 84 |
| O=C(O)CCNC(=O)c1ccsc1 | 235 to 237 |
| N#Cc1ccc2[nH]cc(C=O)c2c1 | 239 to 241 |
| O=[N+]([O-])c1cccc2c1CCCN2 | 79 to 81 |

| SMILES | melting point [°C] |
| --- | --- |
| CCc1ccc(-c2ccc(C=O)o2)cc1 | 45 to 47 |
| CC1CCCCN1S(=O)(=O)c1cccc(C(=O)O)c1 (stereo not drawn) | 149 to 151 |
| CN1C(=O)NC(=O)C12CCCCC2 | 172 to 174 |
| O=C(O)C1CCCN1C(=O)c1ccc2ccccc2c1O (stereo not drawn) | 197 to 199 |
| N#CC1(N2CCCC2)CCNCC1 | 61 to 63 |
| O=C(O)CC(O)(c1nc2ccccc2o1)C(F)(F)F (stereo not drawn) | 194 to 196 |
| O=C(O)C1CC1c1ccncc1 (stereo not drawn) | 228 to 230 |
| O=C1CCCc2c(Br)cccc21 | 50 to 52 |
| COc1cccc(/C=C/c2cc(C(=O)O)c3cc(Br)ccc3n2)c1 | 285 to 287 |
| Clc1nc(CN2CCCCC2)nc2sc3c(c12)CCCC3 | 51 to 53 |
| CCc1cccc2c(C(=O)O)c[nH]c12 | 193 to 195 |
| COc1ccc(/C=C/c2cc(C(=O)O)c3cc(Br)ccc3n2)cc1 | 295 to 297 |
| Nc1nc(-c2ccc(S(=O)(=O)N3CCCCCC3)cc2)cs1 | 242 to 244 |
| O=C(O)C(=O)c1ccc(Cl)cc1 | 87 to 89 |
| Fc1ccc2c(C3=CCNCC3)c[nH]c2c1 | 173 to 175 |
| O=[N+]([O-])c1ccc(N2CCC(CO)CC2)nc1 | 123 to 125 |
| Sc1nnc(-c2ccccc2)c(-c2ccccc2)n1 | 222 to 224 |
| O=C(O)c1cccc(CS(=O)(=O)c2ccccc2)c1 | 194 to 196 |
| O=C(O)Cc1ccc(S(=O)(=O)N2CCCC2)s1 | 262 to 264 |
| Nc1nnc(N)s1 | 192 to 194 |
| Cn1ccc(C(=O)N2CCC[C@H]2C(=O)O)cc1=O | 149 to 151 |
| O=C(O)Cc1csc(NC(=O)c2ccccc2I)n1 | 167 to 169 |

| SMILES | melting point [°C] |
| --- | --- |
| O=C(O)c1ccc(NS(=O)(=O)c2ccc(F)c(Cl)c2)cc1 | 240 to 242 |
| O=C(O)CCc1ccc2c(c1)OCCCO2 | 81 to 83 |
| CN1C(=O)CCC(C(=O)O)C1c1ccc(C(F)(F)F)cc1 (stereo not drawn) | 188 to 190 |
| O=C(O)C1CCN(S(=O)(=O)c2ccc(F)c(Cl)c2)CC1 | 190 to 192 |
| NCC(O)c1ccc(Cl)c(F)c1 (stereo not drawn) | 54 to 56 |
| O=Cc1c(N2CCOCC2)nc2ccccn12 | 164 to 166 |
| O=C(O)c1ccc2c(c1)NC(=O)C1CCCN21 (stereo not drawn) | 250 to 252 |
| CC(C)n1ccc(C(=O)O)n1 | 77 to 79 |
| O=C(O)c1cc([N+](=O)[O-])cn1Cc1sccc1Br | 190 to 192 |
| CCCN1C(=O)CC(=O)NC1=S | 127 to 129 |
| O=C(c1cc(Cl)c(Cl)[nH]1)C(Cl)(Cl)Cl | 129 to 131 |
| CN1CC(N)C(=O)N1 (stereo not drawn) | 55 to 57 |
| N#Cc1ccc(Oc2ccc(O)cc2)cc1 | 148 to 150 |
| O=C(O)C1(c2ccc(Br)cc2)CC1 | 155 to 157 |
| O=C(CC(F)(F)F)c1ccc(F)cc1F | 46 to 48 |
| O=C(O)c1csc(C2CC2)n1 | 123 to 125 |
| CN(N)C(N)=O | 108 to 110 |
| NNC(=O)CC1CCCC1 | 82 to 84 |
| NC1CCN(c2ccc(C(F)(F)F)cc2)C1 (stereo not drawn) | 60 to 62 |
| CCN1CCN(CC(=O)O)C(=O)C1=O | 200 to 202 |
